This is an account of results in patent US20090172831A1, “Methods for the production of plants resistant to HPPD herbicides” (Syngenta Limited, priority 2000, published 2009).

Structures are written as SMILES. Values joined by “and” are separate entries in the source; they are usually repeats but may differ in a detail not shown here. Equal entries are not always repeated. Where two headings read alike, the source gives them in different places.

In assay [1] the target is T1, Arabidopsis HPPD (Arabidopsis thaliana, UniProt P93836).
T1 construct: made in house; host or cells: E. coli BL21 (DE3) codon+ RP
T1 sequence (P93836 1-445): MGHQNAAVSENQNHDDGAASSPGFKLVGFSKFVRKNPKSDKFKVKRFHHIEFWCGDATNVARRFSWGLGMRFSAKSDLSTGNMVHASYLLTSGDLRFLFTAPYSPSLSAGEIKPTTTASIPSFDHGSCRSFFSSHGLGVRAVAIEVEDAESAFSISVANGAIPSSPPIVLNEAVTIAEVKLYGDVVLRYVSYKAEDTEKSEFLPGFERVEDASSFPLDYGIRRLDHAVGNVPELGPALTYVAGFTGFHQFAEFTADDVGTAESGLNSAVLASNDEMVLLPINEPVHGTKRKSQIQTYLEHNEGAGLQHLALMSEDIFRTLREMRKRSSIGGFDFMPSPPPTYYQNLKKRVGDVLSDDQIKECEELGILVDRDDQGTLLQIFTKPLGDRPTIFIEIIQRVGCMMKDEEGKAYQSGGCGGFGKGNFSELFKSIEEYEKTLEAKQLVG
The experiment in a line: Dissociation of enzyme/inhibitor complexes by exchange with 14C-labelled inhibitor (koff; Kd = koff/kon). The format is binding. The method, then: It will be appreciated that many suitable methods known in the art for determining such low koff values are suitable for working the current invention. These include measuring rates of exchange of radio or otherwise labelled inhibitors either with or away from the enzyme inhibitor complex. For example enzyme inhibitor complexes can readily be prepared by incubating HPPD preparations with labelled or unlabelled inhibitor and then, after suitable periods, optionally rapidly separating the thus formed enzyme inhibitor complex from excess inhibitor by any suitable method such as ultrafiltration, binding to filters or exchange down a gel filtration column. Exchange reactions with the, thus prepared enzyme inhibitor complex is then initiated by addition of, as appropriate, excess labelled or unlabelled inhibitor. […] Many methods such as radiometric, fluorimetric, NMR, fluorescence depolarisation, EPR, Mossbauer, UV/VIS spectrophotometry etc. or phonon resonance can, in principle, be used to monitor the enzyme/ligand exchange reactions and, particularly in this case where the enzyme contains an iron atom at the ligand binding site. Optionally, the monitoring method may be continuous (as, for example, with scintillation proximity/bead-based methods) or, discontinuous, based upon collection of data at various timepoints wherein samples are removed and the bound and unbound label components rapidly separated and quantitated.
Values of koff can suitably be calculated by computer fitting based upon is numerical integration of the exchange data along with information on the active-site concentration of HPPD and upon kon values obtained as described below. […] In any event, koff values are always here calculated from the rate of the major slow exchange reaction.
^14C mesotrione is of specific activity 1.12 GBq/mmol. […] Following this initial binding reaction, exchange reactions are initiated by addition of cold mesotrione to a final concentration of 60 μM and 200 μl aliquots removed at various times to rapid chromatography down a NAP5 gel filtration column equilibrated in 50 mM BTP at pH 7 containing 0.1 M KCl, separation into fractions containing protein-bound or free radiolabel and liquid scintillation counting.
Nevertheless, here, for practical purposes, koff values are always here calculated from the rate of the major slow exchange reaction.
Not all test inhibitors are readily available in a radiolabelled form.

The target in assay [2] is T1, Arabidopsis HPPD. The experiment in a line: Rate of binding (kon) by radiolabelled inhibitor and separation of bound from free. An excerpt:
Alternatively estimates of kon values can be determined more directly by mixing HPPD with radio or otherwise labelled herbicide inhibitor and monitoring the progress of the binding reaction, optionally by rapidly isolating the enzyme inhibitor complex and/or by any one of a number of methods (for example fluorimetry, EPR, NMR, radiodetection etc). For example, the reaction with HPPD may be started by addition of radiolabelled herbicide, allowed to proceed for a series of different times and rapidly quenched by addition and mixing with a large excess of unlabelled inhibitor. In this case the extent of binding at different times may, for example, be monitored by using ultrafiltration, binding to filters or gel filtration to separate radiolabel-bound to HPPD from unbound label which fractions can then each be quantitated by scintillation counting. […]
The measurements of koff are based on physical rather than assay-based measurements. Similarly, kon rates can also be measured by a direct physical method, in this case the use of radiolabelled inhibitor and physical separation of protein bound from free inhibitor. […] The rates of binding determined on the basis of measurement of the amount of radiolabelled inhibitor bound after various times of reaction are found to correlate very well with measurements based upon assay-based measurements of the rate of decline of enzyme activity. […]

With `CS(=O)(=O)c1ccc(C(=O)C2C(=O)CCCC2=O)c([N+](=O)[O-])c1` [Structure I, 2-(Nitro-4-methanesulphonylbenzoyl)-cyclohexane-1,3-dione, reference compound], the Kd (commonly the free concentration of one partner at which half of the binding sites on the other are occupied at equilibrium, for simple one-to-one binding) came to 0.021 nM in assay [1] (Kd, value obtained + glycerol (in parentheses)) and 0.014 nM in assay [1] (Kd, without glycerol, Kd = koff/kon). Moreover, in assay [2] (25% v/v glycerol), the “rate constant of subsequent much slower binding to the remaining site” value is roughly 1000 M⁻¹ s⁻¹.
For `Cc1nc(C(F)(F)F)ccc1C(=O)C1C(=O)C2CCC(C2)C1=O` (stereo not drawn) [Structure II], in assay [1], the equilibrium dissociation constant (Kd) came to 0.11 nM; the “ratio Kd2/Kd4, structure II to structure VII” value came out at 3.4; the “ratio koff2/koff4, structure II to structure VII” value is 11 and 8.6. The koff (usually the rate constant with which the complex falls apart) in assay [1] (without 25% v/v glycerol, exchange with 14C mesotrione) was roughly 1.16e-05 s⁻¹. In assay [1] (− glycerol), this compound displayed an off-rate (koff) of 1.16e-05 s⁻¹. In assay [2] (without 25% v/v glycerol), the kon (in general, the second-order rate constant of association) was determined as 800000 M⁻¹ s⁻¹.
